The record followed here is patent US4826844A, “Substituted 1-(aralkyl-piperazinoalkyl) cycloalkanols” (American Home Products Corporation, priority 1987, dated 1989).

Molecules are shown by their SMILES. pIC50, pKi: −log10 of the molar value.

Assay [1] deals with synaptosomial uptake of norepinephrine. The assay is described as follows: inhibition of synaptosomial uptake of norepinephrine (3H-NE). It counts as biochemical. Particulars: for pIC50 / Neuronal Uptake NE % Inhibition at 10 μM: synaptosomes; for pIC50: read-out: Neuronal Uptake NE IC50. An excerpt: (§1) The pharmacological test data obtained for a representative number of compounds of this invention in accordance with the standard experimental test procedures disclosed above appear in the following table: […]

The target in another assay is T1, dopamine D2 receptors (Rattus norvegicus, UniProt P61169).
T1 construct: found in homogenized limbic brain tissue; from tissue; host or cells: homogenized limbic brain tissue
As to the kind of experiment: inhibition of 3H-haloperidol binding at dopamine D2 receptors in homogenized limbic brain tissue. Particulars: for inhibition at 1 µM: read-out: Receptor Binding D2 % Inhibition at 1 μM.

Another assay has as its target T2, 5-HT1A receptor (Rattus norvegicus, UniProt P19327).
T2 construct: from tissue; host or cells: rat hippocampus
T2 sequence (P19327 1-422): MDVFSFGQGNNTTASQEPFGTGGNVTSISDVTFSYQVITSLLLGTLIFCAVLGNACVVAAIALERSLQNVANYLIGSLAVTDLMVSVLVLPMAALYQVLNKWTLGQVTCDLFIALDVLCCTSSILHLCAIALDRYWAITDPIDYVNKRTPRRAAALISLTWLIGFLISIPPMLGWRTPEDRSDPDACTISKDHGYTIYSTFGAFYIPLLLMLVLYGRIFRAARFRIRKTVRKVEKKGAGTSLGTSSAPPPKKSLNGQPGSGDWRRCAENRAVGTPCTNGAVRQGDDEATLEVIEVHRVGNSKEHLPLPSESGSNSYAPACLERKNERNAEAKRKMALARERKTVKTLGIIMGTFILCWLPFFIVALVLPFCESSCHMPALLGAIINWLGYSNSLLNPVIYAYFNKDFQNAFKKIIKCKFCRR
As to the kind of experiment: inhibition of [3H] 8-hydroxy-2-(di-n-propylamino)tetralin binding at 5-HT1A receptor sites. Particulars: rat hippocampal tissue.

In assay [2] the test system is synaptosomial uptake of serotonin. As to the kind of experiment: inhibition of synaptosomial uptake of serotonin (14C-5-HT). It is filed as biochemical. Particulars: synaptosomes.
Text: as §1

T1 sequence (P61169 whole entry): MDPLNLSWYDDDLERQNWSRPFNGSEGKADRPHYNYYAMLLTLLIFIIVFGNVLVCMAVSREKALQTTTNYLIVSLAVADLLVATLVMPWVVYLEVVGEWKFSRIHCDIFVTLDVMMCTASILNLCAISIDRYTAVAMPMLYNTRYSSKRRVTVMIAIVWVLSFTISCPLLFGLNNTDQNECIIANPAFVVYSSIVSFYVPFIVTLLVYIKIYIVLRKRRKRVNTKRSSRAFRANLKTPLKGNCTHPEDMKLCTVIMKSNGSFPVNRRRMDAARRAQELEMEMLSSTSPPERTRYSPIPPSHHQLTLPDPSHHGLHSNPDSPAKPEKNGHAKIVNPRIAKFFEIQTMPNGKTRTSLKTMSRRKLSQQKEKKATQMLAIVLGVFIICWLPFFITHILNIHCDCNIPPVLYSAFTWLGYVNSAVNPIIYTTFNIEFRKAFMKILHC
Text for 5-HT1A receptor: 8-hydroxy-2-(di-n-propylamino)tetralin binding at 5-HT binding sites in rat hippocampal tissue, following the procedure of Hall et al., J. Neurochem., 44 1685 (1985).
Text for dopamine D2 receptors: The actual percentage reduction of ^3 H-haloperidol binding is reported infra and the larger the number, the greater the potential for dopamine D2 receptor binding and antipsychotic activity.

Broadly, the pIC50 is the IC50 on a negative log10 scale, so that one unit is a factor of ten. What is called inhibition is the change of the read-out against control, counted positive when it falls. For the molecule `COc1ccc(C(CCN2CCN(Cc3ccccc3)CC2)C2(O)CCCCC2)cc1` (stereo not drawn) [Example 8, 1-[1-(4-Methoxyphenyl)-3-[4-(phenylmethyl)-1-piperazinyl]propyl]cyclohexanol], the pIC50 in assay [1] was 6.21. In addition, the figures for the inhibition at 1 µM on dopamine D2 receptors (3H-haloperidol) and on 5-HT1A receptor were 55% and 99%, respectively. For the same molecule, the “Neuronal Uptake 5HT % Inhibition at 10 μM” value in assay [2] was determined as 67%.

Consider `COc1cccc(C(CCN2CCN(Cc3cccc(Cl)c3)CC2)C2(O)CCCCC2)c1` (stereo not drawn) [Example 4, 1-[3-[4-[(3-Chlorophenyl)methyl]-1-piperazinyl]-1-(3-methoxyphenyl)propyl]cyclohexanol], for which the “dopamine D2 receptor affinity / binding potential (in words)” value on dopamine D2 receptors is listed as “typical D2 binding potential”. The inhibition at 1 µM on dopamine D2 receptors (3H-haloperidol) stood at 90%; at 5-HT1A receptor it was 66%.

`COc1cccc(C(CCN2CCN(Cc3cccc(F)c3)CC2)C2(O)CCCCC2)c1` (stereo not drawn) [Example 7, 1-[3-[4-[(3-Fluorophenyl)methyl]-1-piperazinyl]-1-(3-methoxyphenyl)propyl]cyclohexanol]: the inhibition at 1 µM on dopamine D2 receptors (3H-haloperidol) is 89%; at 5-HT1A receptor, 93%.

Take `COc1ccc(C(CCN2CCN(Cc3cccc(Cl)c3)CC2)C2(O)CCCCC2)cc1` (stereo not drawn) [Example 12, 1-[3-[4-[(3-Chlorophenyl)methyl]-1-piperazinyl]-1-(4-methoxyphenyl)propyl]cyclohexanol]: the values for the inhibition at 1 µM on dopamine D2 receptors (3H-haloperidol) and on 5-HT1A receptor were 95% and 100%, respectively.

In the case of `COc1cccc(C(CCN2CCN(c3ncccn3)CC2)C2(O)CCCCC2)c1` (stereo not drawn) [Example 2, 1-[1-(3-Methoxyphenyl)-3-[4-(2-pyrimidinyl)-1-piperazinyl]propyl]cyclohexanol], the inhibition at 1 µM was determined as 59% on dopamine D2 receptors (3H-haloperidol) and 78% at 5-HT1A receptor.

As a reminder, the pKi is the Ki on a negative log10 scale, so that one unit is a factor of ten. Take `COc1cccc(C(CCN2CCN(Cc3ccccc3)CC2)C2(O)CCCCC2)c1` (stereo not drawn) [Example 1, 1-[1-(3-Methoxyphenyl)-3-[4-(phenylmethyl)-1-piperazinyl]propyl]cyclohexanol]: the figures for the pIC50 in assay [1] and in assay [2] (read-out: Neuronal Uptake 5HT IC50) were 5.69 and 6.41, respectively. For the same molecule, the pKi was 6.68 at dopamine D2 receptors (3H-haloperidol, read-out: Receptor Binding D2 Ki) and 8.00 at 5-HT1A receptor. Moreover, the “affinity at 5-HT1A receptor binding sites (in words)” value on 5-HT1A receptor is “strong affinity at 5-HT1A receptor binding sites”.

In the case of `COc1ccc(C(CCN2CCN(c3ncccn3)CC2)C2(O)CCCCC2)cc1` (stereo not drawn) [Example 24], the inhibition at 1 µM on dopamine D2 receptors (3H-haloperidol) was found to be 11%.

For `COc1ccc(C(CCN2CCN(Cc3cccc(OC)c3)CC2)C2(O)CCCCC2)cc1` (stereo not drawn) [Example 10], the inhibition at 1 µM on dopamine D2 receptors (3H-haloperidol) is 73%; at 5-HT1A receptor, 99%.

Take `COc1ccc(C(CCN2CCN(Cc3ccccc3OC)CC2)C2(O)CCCCC2)cc1` (stereo not drawn) [Example 13]: the inhibition at 1 µM stood at 77% at dopamine D2 receptors (3H-haloperidol) and 93% at 5-HT1A receptor.

On to `OC1(C(CN2CCN(c3cccc(Cl)c3)CC2)c2cccc(Cl)c2)CCCCC1` (stereo not drawn) [Example 19, 1-[1-(3-Chlorophenyl)-2-[4-(3-chlorophenyl)-1-piperazinyl]ethyl]cyclohexanol], for which the inhibition at 1 µM at dopamine D2 receptors (3H-haloperidol) is 32%; at 5-HT1A receptor, 94%.

Turning to `COc1ccc(C(CCN2CCN(Cc3cccc(C(F)(F)F)c3)CC2)C2(O)CCCCC2)cc1` (stereo not drawn) [Example 11, 1-[1-(4-Methoxyphenyl)-3-[4-[[3-(trifluoromethyl)phenyl]methyl]-1-piperazinyl]propyl]cyclohexanol], the “dopamine D2 receptor affinity / binding potential (in words)” value on dopamine D2 receptors is given as “typical D2 binding potential”. Moreover, the inhibition at 1 µM on dopamine D2 receptors (3H-haloperidol) and on 5-HT1A receptor was 100% throughout.

For the molecule `COc1cccc(C(CN2CCN(Cc3ccccc3)CC2)C2(O)CCCCC2)c1` (stereo not drawn) [Example 15, 1-[1-(3-Methoxyphenyl)-2-[4-(phenylmethyl)-1-piperazinyl]ethyl]cyclohexanol], the results for the inhibition at 1 µM at dopamine D2 receptors (3H-haloperidol) and at 5-HT1A receptor were 90% and 91%, respectively.

Regarding `COc1ccc(C(CCN2CCN(c3cncc(Cl)n3)CC2)C2(O)CCCCC2)cc1` (stereo not drawn) [Example 9, 1-[3-[4-(6-Chloro-2-pyrazinyl)-1-piperazinyl]-1(4-methoxyphenyl)propyl]cyclohexanol], the inhibition at 1 µM at dopamine D2 receptors (3H-haloperidol) was determined as 15%; on 5-HT1A receptor, 57%.

Consider `COc1cccc(C(CN2CCN(c3cccc(Cl)c3)CC2)C2(O)CCCCC2)c1` (stereo not drawn) [Example 18], for which, in assay [1], the “Neuronal Uptake NE % Inhibition at 10 μM” value is listed as 38%. The inhibition at 1 µM was found to be 39% at dopamine D2 receptors (3H-haloperidol) and 97% at 5-HT1A receptor. Also, the “Neuronal Uptake 5HT % Inhibition at 10 μM” value in assay [2] was determined as 62%.

`CN1CCN(CC(c2cccc(Cl)c2)C2(O)CCCCC2)CC1` (stereo not drawn) [Example 26, 1-[1-(3-Chlorophenyl)-2-(4-methyl-1-piperazinyl)ethyl]cyclohexanol]: in assay [1], the “antidepressant activity by inhibition of synaptosomial uptake of norepinephrine and/or serotonin (in words)” value is recorded as “selective antidepressant activity” and the pIC50 is 6.74. Also, on dopamine D2 receptors (3H-haloperidol), the inhibition at 1 µM came to 26%. At 5-HT1A receptor, this molecule displayed an inhibition at 1 µM of 0%. Besides, the “Neuronal Uptake 5HT % Inhibition at 10 μM” value in assay [2] is given as 33%.

Take `CN1CCN(CC(c2cccc(C(F)(F)F)c2)C2(O)CCCCC2)CC1` (stereo not drawn) [Example 27, 1-[2-(4-Methyl-1-piperazinyl)-1-[3-(trifluoromethyl)phenyl]ethyl]cyclohexanol]: the “Neuronal Uptake NE % Inhibition at 10 μM” value in assay [1] was 86%. The “antidepressant activity by inhibition of synaptosomial uptake of norepinephrine and/or serotonin (in words)” value in assay [1] is given as “selective antidepressant activity”. In addition, the values for the inhibition at 1 µM on dopamine D2 receptors (3H-haloperidol) and on 5-HT1A receptor were 0% and 5%, respectively. For the same molecule, the “Neuronal Uptake 5HT % Inhibition at 10 μM” value in assay [2] is reported as 0%.

For `COc1cccc(C(CCN2CCN(Cc3ccccc3OC)CC2)C2(O)CCCCC2)c1` (stereo not drawn) [Example 6, 1-[1-(3-Methoxyphenyl)-3-[4-[(2-methoxyphenyl)methyl]-1-piperazinyl]propyl]cyclohexanol], the inhibition at 1 µM at dopamine D2 receptors (3H-haloperidol) came to 91%; at 5-HT1A receptor, 93%.

Turning to `COc1ccc(C(CCN2CCN(Cc3ccc(C(F)(F)F)cc3)CC2)C2(O)CCCCC2)cc1` (stereo not drawn) [Example 14, 1-[1-(4-Methoxyphenyl)-3-[4-[[4-(trifuloromethyl)phenyl]methyl]-1-piperazinyl]propyl]cyclohexanol], the inhibition at 1 µM on dopamine D2 receptors (3H-haloperidol) was found to be 25%; at 5-HT1A receptor, 63%.

`COc1cccc(C(CCN2CCN(Cc3ccc(Cl)cc3)CC2)C2(O)CCCCC2)c1` (stereo not drawn) [Example 5, 1-[3-[4-[(4-Chlorophenyl)methyl]-1-piperazinyl]-1-(3-methoxyphenyl)propyl]cyclohexanol]: the inhibition at 1 µM is 51% at dopamine D2 receptors (3H-haloperidol) and 97% on 5-HT1A receptor.

With `COc1cccc(C(CCN2CCN(c3cncc(Cl)n3)CC2)C2(O)CCCCC2)c1` (stereo not drawn) [Example 3, 1-[3-[4-(6-Chloro-2-pyrazinyl)-1-piperazinyl]-1-(3-methoxyphenyl)propyl]cyclohexanol], the inhibition at 1 µM at dopamine D2 receptors (3H-haloperidol) came to 41%. The pKi at 5-HT1A receptor is 6.91.
